Laboratory results as given in patent US8993542B2, “Methods of treating viral infections” (priority 2008, dated 2015).

Tests used:
HIV-1IIIB [1] = assay: Two-drug combination antiviral assay in CEM cells (CPE), MacSynergy II; type: cell-based; conditions: in combination with CMX157, CEM-SS cells, 95% confidence
HIV-1IIIB [2] = assay: Association of compound with concentrated virus (LC/MS/MS of viral pellets); type: binding; conditions: 500 nM, 2 hours
Protocol: To examine the potential of CMX157 to associate directly with virus, concentrated HIV-1IIIB (approximately 9.7×10^10 virus particles) is treated with 500 nM CMX157 or TFV for 2 hours. Following incubation, virus is pelleted to remove unbound compound, lysed with 70% ice cold methanol and centrifuged. Supernatants are analyzed in triplicate using LC/MS/MS (liquid chromatography/mass spectrometry). TFV, TFV mono- and diphosphate are separated by gradient, reverse phase, ion-paring chromatography and detected by positive ion electrospray. The levels of CMX157 associated with the viral pellets (≈37,000 molecules/virion) are much higher than the levels of TFV associated with viral pellets (≈100 molecules/virion).

HIV-1IIIB [3] = assay: Resistance selection by serial passage in CEM-SS cells; type: cell-based
Protocol: In vitro studies designed to select CMX157 resistant mutants use wild-type HIV-1 as the primary inoculum and TFV as a positive control. These studies are conducted by serial passage of HIV-1IIIB and HIV-1RF in CEM-SS cells using increasing concentrations of TFV or CMX157. Drug levels are increased following detection of viral growth at each passage using procedures known to one skilled in the art. Upon completion of each passage, the reverse transcriptase coding region of the viral genome is sequenced to identify any possible resistance-associated mutations that may have emerged within the virus pool.

[4] = Passage 1, Tenofovir 10 μM (2× IC50)
[5] = Passage 2, Tenofovir 20 μM (4× IC50)
[6] = Passage 3, Tenofovir 30 μM (6× IC50)
[7] = Passage 4, Tenofovir 40 μM (8× IC50)
[8] = Passage 5, Tenofovir 40 μM (8× IC50)
[9] = Passage 6, Tenofovir 40 μM (8× IC50)
[10] = Passage 7, Tenofovir 45 μM (9× IC50)
[11] = Passage 8, Tenofovir 50 μM (10× IC50)
[12] = Passage 9, Tenofovir 55 μM (11× IC50)
[13] = Passage 10, Tenofovir 60 μM (12× IC50)

C[C@H](Cn1cnc2c(N)ncnc21)OCP(=O)(O)O [TFV, (R)-9-(2-phosphonylmethoxypropyl)adenine]
Antagonism Volume, Result 1 (HIV-1IIIB [1]): −0.53 nM^2 %, μM^2 % or nMμM %
Antagonism Volume, Result 2 (HIV-1IIIB [1]): 0 nM^2 %, μM^2 % or nMμM %
Antagonism Volume, Result 3 (HIV-1IIIB [1]): 0 nM^2 %, μM^2 % or nMμM %
Mean Antagonism Volume (n = 3) (HIV-1IIIB [1]): −0.18 nM^2 %, μM^2 % or nMμM %
Mean Synergy Volume (n = 3) (HIV-1IIIB [1]): 28.4 nM^2 %, μM^2 % or nMμM %
Synergy Volume, Result 1 (HIV-1IIIB [1]): 17.6 nM^2 %, μM^2 % or nMμM %
Synergy Volume, Result 2 (HIV-1IIIB [1]): 37.2 nM^2 %, μM^2 % or nMμM %
Synergy Volume, Result 3 (HIV-1IIIB [1]): 30.3 nM^2 %, μM^2 % or nMμM %
levels associated with the viral pellets (HIV-1IIIB [2]): ≈ 100 molecules/virion
passage by which K65R was selected (HIV-1IIIB [3]): ≤ 8 passage
Comments (virus replication) (HIV-1IIIB [3]; [4]): Low-level virus replication observed
Day of Peak Virus Production (HIV-1IIIB [3]; [4]): Day 6
Peak RT activity (HIV-1IIIB [3]; [4]): (3,525 cpm)
Comments (virus replication) (HIV-1IIIB [3]; [5]): Low-level virus replication observed
Day of Peak Virus Production (HIV-1IIIB [3]; [5]): Day 7
Peak RT activity (HIV-1IIIB [3]; [5]): (2,016 cpm)
Comments (virus replication) (HIV-1IIIB [3]; [6]): Low-level virus replication observed
Day of Peak Virus Production (HIV-1IIIB [3]; [6]): Day 14
Peak RT activity (HIV-1IIIB [3]; [6]): (2,062 cpm)
Comments (virus replication) (HIV-1IIIB [3]; [7]): Low-level virus replication observed
Day of Peak Virus Production (HIV-1IIIB [3]; [7]): Day 6
Peak RT activity (HIV-1IIIB [3]; [7]): (3,109 cpm)
Comments (virus replication) (HIV-1IIIB [3]; [8]): Low-level virus replication observed;
Day of Peak Virus Production (HIV-1IIIB [3]; [8]): Day 14
Peak RT activity (HIV-1IIIB [3]; [8]): (1,788 cpm)
Comments (virus replication) (HIV-1IIIB [3]; [9]): Robust virus replication observed;
Day of Peak Virus Production (HIV-1IIIB [3]; [9]): Day 19
Peak RT activity (HIV-1IIIB [3]; [9]): (23,508)
Comments (virus replication) (HIV-1IIIB [3]; [10]): Robust virus replication observed; minor
Day of Peak Virus Production (HIV-1IIIB [3]; [10]): Day 7
Peak RT activity (HIV-1IIIB [3]; [10]): (24,408 cpm)
Comments (virus replication) (HIV-1IIIB [3]; [11]): Robust virus replication observed; E404D
Day of Peak Virus Production (HIV-1IIIB [3]; [11]): Day 9
Peak RT activity (HIV-1IIIB [3]; [11]): (57,455 cpm)
Comments (virus replication) (HIV-1IIIB [3]; [12]): Robust virus replication observed;
Day of Peak Virus Production (HIV-1IIIB [3]; [12]): Day 11
Peak RT activity (HIV-1IIIB [3]; [12]): (25,458 cpm)
Comments (virus replication) (HIV-1IIIB [3]; [13]): Robust virus replication observed;
Day of Peak Virus Production (HIV-1IIIB [3]; [13]): Day 7
Peak RT activity (HIV-1IIIB [3]; [13]): (31,549 cpm)
